# According to ChEMBL document CHEMBL3507680, “University of Dundee, Gates Library screen for HepG2 cell viability”:
# Assay: Human HepG2 cell viability assay in 384 well format
# Format: toxicity, cell-based
# Set-up: dose 125 nL, time 70.5 hour; concentration not given beside the values
# Conditions: HepG2 cells, read-out: Inhibition
row,SMILES,cytotoxicity at 70.5 h
1,c1ccc(COC2CCN(Cc3cc4n(n3)CCCNC4)CC2)nc1,-18%
2,CCc1oc(C(=O)NCCc2nc(C(=O)O)cs2)cc1CN1CCCC1,-3.56%
3,Cc1ccc(C#N)c(N2CC(C)(C)[C@@](C)(O)C2)n1,-6.73%
4,COCCN(C)C[C@@H]1CN(C(=O)c2ccc(=O)n(C)c2)C[C@@H]1CO,-3.56%
5,O=S(=O)(NCc1ccccc1)N(Cc1ccccn1)CC1CCCO1 (stereo not given),-2.95%
6,Cc1n[nH]c(C)c1CC(=O)N1CCCN(C)C2(CCN(C)CC2)C1,23.3%
7,Cc1n[nH]c(C)c1Sc1ccccc1NC(=O)N1CCOCC1,-2.37%
8,CCn1c(N)nc2cc(C(=O)N3CC(c4ccccn4)C3)cnc21,-5.92%
9,COc1cc(NCc2ccccc2-n2cncn2)nc(N)n1,-6.05%
10,CN(C)CCCn1ccc(-c2cccc(-c3cncnc3)c2)n1,-9.25%
11,Cn1cc(Cl)cc1C(=O)N1CCC2(CCCN(CC3CC3)C2=O)C1 (stereo not given),24.1%
12,CCc1noc(CN(CC)C(=O)C2CC(=O)N(Cc3ccncc3)C2)n1 (stereo not given),35.2%
13,CC(C)c1cc(N2CCC[C@H](N)C2)n2nccc2n1,-4.66%
14,Cc1ccc(C)c(OCc2cc(C(=O)N(C)Cc3cnn(C)c3)no2)c1,-8.7%
15,CC(c1ccon1)N(C)C(=O)C1CCN(C(=O)C2CCC2)CC1 (stereo not given),25.3%
16,COc1cc(C(=O)N2Cc3cnc(C(C)(C)C)nc3C2)ccn1,-2.74%
17,Cc1nc(N2CCOc3ccc(CO)cc3C2)c2nc(C)oc2n1,-1.34%
18,O=C(NCCSc1cnn[nH]1)c1c[nH]nc1C1CCCCC1,1.5%
19,COc1cccc(CN2CC3(CCNCC3)CCC2=O)c1OC,0.619%
20,O=C(c1cncc(NCC2COc3ccccc3C2)n1)N1CCCC1 (stereo not given),14.9%
21,CCn1ncnc1C1CC(=O)NCc2nc(N3CCCC3)sc21 (stereo not given),-21.6%
22,Cc1ccc(OC2(C(=O)O)CCN(C(=O)c3cc(C)oc3C)CC2)cn1,4.69%
23,CC(c1ccc(F)cc1)n1ccnc1-c1cc2n(n1)CCCNC2 (stereo not given),-6.66%

row,SMILES,cytotoxicity at 70.5 h
1,CSCCC1c2nc[nH]c2CCN1Cc1[nH]c2ccc(F)cc2c1C (stereo not given),10.9%
2,CN(Cc1csc(-c2cccs2)n1)CC(O)CO (stereo not given),18.7%
3,COCCCN1CCC(c2nc3c([nH]2)CC(C)(C)CNC3=O)C1 (stereo not given),-5.24%
4,Cc1c(C(=O)NCC2CCN(Cc3ccco3)C2)[nH]c2ccccc12 (stereo not given),-5.18%
5,CSc1ccccc1C(=O)N1C[C@H]2CC[C@@H]1CN(C(=O)C1CCC1)C2,-4.19%
6,COc1ccc(OCc2nc(C(=O)N3CCC(NC(C)=O)C3)co2)cc1 (stereo not given),-1.19%
7,Cc1nccn1-c1ccc(NC(=O)C2CCCN2Cc2c[nH]cn2)cc1 (stereo not given),14.9%
8,O=C(NCCc1[nH]nc2c1CCCC2)C1CCCN(Cc2ccco2)C1 (stereo not given),-2.55%
9,CN(C)C[C@@H]1CN(C(=O)CCC2CCCC2)C[C@@H]1CO,20.2%
10,CC(C)CN1CCc2[nH]cnc2C12CCN(C(=O)c1cc[nH]n1)CC2,-5.86%
11,Cc1ncsc1C(=O)N1CCCC(CO)(CC2CC2)C1 (stereo not given),-7.6%
12,Cc1ccnc(C(Nc2nccc(-c3ccc(C)nc3C)n2)C2CC2)c1 (stereo not given),-6.77%
13,COc1cccc(OC2CN(C(=O)c3ccnc(OC)c3)C2)c1,-21%
14,CC(NCc1cc(O)c2cccc(F)c2n1)c1ccccc1O (stereo not given),-10.4%
15,O=C1CCC2(CCN(Cc3ccc(F)cc3Cl)CC2)CN1CCO,12.9%
16,C[C@@H]1CN(c2cc(N3CCC(O)CC3)ncn2)C[C@@]1(O)C1CCC1,35.1%
17,Cc1cccnc1N1CCN(Cc2cc(O)c3cccc(F)c3n2)CC1,-0.745%
18,CCN1CCC(CNc2nccc(C)n2)(N(C)C)CC1,-3.2%
19,CSCCC1c2nc[nH]c2CCN1Cc1cncn1C (stereo not given),33.9%
20,CN(Cc1csc(-c2cccs2)n1)Cc1ncccc1C(=O)O,-12.2%
21,CN(CCCc1nccn1C)C(=O)C1COc2ccccc2C1 (stereo not given),-2.53%
22,CN(CCN1CCCCCC1)Cc1cnc(N)nc1,-6%
